Where two headings read alike, the source gives them in different places.
Legend:
B. subtilis HE = experiment: Antibiogram by disc diffusion method; type: cell-based, Bacillus subtilis; conditions: for Zone of inhibition: 6 mm antibiotic discs, Mueller-Hinton plates, 18 hours at 37° C., strain B. subtilis HE
B. licheniformis PA = experiment: Antibiogram by disc diffusion method; type: cell-based, Bacillus licheniformis
[1] = 6 mm antibiotic discs, Mueller-Hinton plates, 18 hours at 37° C., strain B. licheniformis PA

| Molecule | Zone of inhibition (B. subtilis HE) [mm] | Zone of inhibition (B. licheniformis PA; [1]) [mm] | Sensitivity or resistance of the strain to the antibiotic (in words) (B. subtilis HE) | Sensitivity or resistance of the strain to the antibiotic (in words) (B. licheniformis PA; strain B. licheniformis PA) | Zone of inhibition (B. licheniformis PA) [mm] |
| --- | --- | --- | --- | --- | --- |
| NCC[C@H](O)C(=O)N[C@@H]1C[C@H](N)[C@@H](O[C@H]2O[C@H](CN)[C@@H](O)[C@H](O)[C@H]2O)[C@H](O)[C@H]1O[C@H]1O[C@H](CO)[C@@H](O)[C@H](N)[C@H]1O [Amikacin] | 20 ± 0.2 | 18 ± 0.1 |  |  |  |
| CC1(C)S[C@@H]2[C@H](NC(=O)[C@H](N)c3ccc(O)cc3)C(=O)N2[C@H]1C(=O)O [Amoxicillin] | 18 ± 0.1 | 16 ± 0.1 |  |  |  |
| CC1(C)S[C@@H]2[C@H](NC(=O)[C@H](N)c3ccccc3)C(=O)N2[C@H]1C(=O)O [Ampicillin] | 10 ± 0.3 | 0 | sensitive | resistant |  |
| CC1(C)S[C@@H]2[C@H](NC(=O)[C@H](NC(=O)N3CCNC3=O)c3ccccc3)C(=O)N2[C@H]1C(=O)O [Azlocillin] | 18 ± 0.2 | 16 ± 0.1 |  |  |  |
| C[C@H]1[C@H](NC(=O)/C(=N\OC(C)(C)C(=O)O)c2csc(N)n2)C(=O)N1S(=O)(=O)O [Aztreonam] | 0 | 0 | resistant |  |  |
| CC1(C)S[C@@H]2[C@H](NC(=O)Cc3ccccc3)C(=O)N2[C@H]1C(=O)O [Benzylpenicillin] | 8 ± 0.1 | 0 | sensitive |  |  |
| CC1(C)S[C@@H]2[C@H](NC(=O)C(C(=O)O)c3ccccc3)C(=O)N2[C@H]1C(=O)O (stereo partly shown) [Carbenicillin] | 24 ± 0.4 | 18 ± 0.3 | sensitive | sensitive |  |
| Cn1nnnc1SCC1=C(C(=O)O)N2C(=O)[C@@H](NC(=O)[C@H](O)c3ccccc3)[C@H]2SC1 [Cefamandol] | 37 ± 0.1 | 16 ± 0.1 |  |  |  |
| CCN1CCN(C(=O)N[C@@H](C(=O)N[C@@H]2C(=O)N3C(C(=O)O)=C(CSc4nnnn4C)CS[C@H]23)c2ccc(O)cc2)C(=O)C1=O [Cefoperazon] | 16 ± 0.1 | 12 ± 0.2 |  |  |  |
| CO/N=C(\C(=O)N[C@@H]1C(=O)N2C(C(=O)O)=C(COC(C)=O)CS[C@H]12)c1csc(N)n1 [Cefotaxim] | 14 ± 0.2 | 10 ± 0.2 |  |  |  |
| CO[C@@]1(NC(=O)Cc2cccs2)C(=O)N2C(C(=O)O)=C(COC(N)=O)CS[C@@H]21 [Cefoxitin] | 16 ± 0.3 | 12 ± 0.3 |  |  |  |
| CC(C)(O/N=C(\C(=O)N[C@@H]1C(=O)N2C(C(=O)[O-])=C(C[n+]3ccccc3)CS[C@H]12)c1csc(N)n1)C(=O)O [Ceftazidim] | 8 ± 0.2 | 0 | sensitive |  |  |
| CO/N=C(\C(=O)N[C@@H]1C(=O)N2C(C(=O)O)=CCS[C@H]12)c1csc(N)n1 [Ceftizoxim] | 0 | 0 |  |  |  |
| CO/N=C(\C(=O)N[C@@H]1C(=O)N2C(C(=O)O)=C(CSc3nc(=O)c(=O)[nH]n3C)CS[C@H]12)c1csc(N)n1 [Ceftriaxon] | 18 ± 0.3 | 12 ± 0.2 |  |  |  |
| CO/N=C(\C(=O)N[C@@H]1C(=O)N2C(C(=O)O)=C(COC(N)=O)CS[C@H]12)c1ccco1 [Cefuroxim] | 0 | 0 | resistant | resistant |  |
| CC(=O)OCC1=C(C(=O)O)N2C(=O)[C@@H](NC(=O)Cc3cccs3)[C@H]2SC1 [Cephalothin] | 32 ± 0.5 | 20 ± 0.4 |  |  |  |
| O=C(N[C@H](CO)[C@H](O)c1ccc([N+](=O)[O-])cc1)C(Cl)Cl [Chloramphenicol] | 16 ± 0.2 | 10 ± 0.1 |  |  |  |
| CCC[C@@H]1C[C@@H](C(=O)N[C@@H]([C@H]2O[C@H](SC)[C@H](O)[C@@H](O)[C@H]2O)[C@H](C)Cl)N(C)C1 [Clindamycin] | 10 ± 0.3 | 0 |  |  |  |

| Molecule | Zone of inhibition (B. subtilis HE) [mm] | Zone of inhibition (B. licheniformis PA; [1]) [mm] | Sensitivity or resistance of the strain to the antibiotic (in words) (B. subtilis HE) | Sensitivity or resistance of the strain to the antibiotic (in words) (B. licheniformis PA; strain B. licheniformis PA) | Zone of inhibition (B. licheniformis PA) [mm] |
| --- | --- | --- | --- | --- | --- |
| C[C@@H](O)[C@H]1C(=O)N2C(C(=O)O)=C(SCCN=CN)C[C@H]12 [Imipenem] | 36 ± 0.4 | 32 ± 0.3 |  |  |  |
| NC[C@H]1O[C@H](O[C@H]2[C@H](O)[C@@H](O[C@H]3O[C@H](CO)[C@@H](O)[C@H](N)[C@H]3O)[C@H](N)C[C@@H]2N)[C@H](O)[C@@H](O)[C@@H]1O [Kanamycin] | 23 ± 0.1 | 20 ± 0.1 |  |  |  |
| COc1cccc(OC)c1C(=O)N[C@@H]1C(=O)N2[C@@H]1SC(C)(C)[C@@H]2C(=O)O [Methicillin] | 18 ± 0.1 | 0 | sensitive | resistant |  |
| CC1(C)S[C@@H]2[C@H](NC(=O)[C@H](NC(=O)N3CCN(S(C)(=O)=O)C3=O)c3ccccc3)C(=O)N2[C@H]1C(=O)O [Mezlocillin] | 20 ± 0.3 | 17 ± 0.2 |  |  |  |
| CO[C@@]1(NC(=O)C(C(=O)O)c2ccc(O)cc2)C(=O)N2C(C(=O)O)=C(CSc3nnnn3C)CO[C@@H]21 (stereo partly shown) [Moxalactam] | 12 ± 0.3 | 12 ± 0.3 |  |  |  |
| O=C1CN(/N=C/c2ccc([N+](=O)[O-])o2)C(=O)N1 [Nitrofurantoin] | 16 ± 0.2 | 18 ± 0.1 |  |  |  |
| CCn1cc(C(=O)O)c(=O)c2cc(F)c(N3CCNCC3)cc21 [Norfloxacin] | 24 ± 0.2 | 24 ± 0.2 |  |  |  |
| Cc1onc(-c2ccccc2)c1C(=O)N[C@@H]1C(=O)N2[C@@H]1SC(C)(C)[C@@H]2C(=O)O [Oxacillin] | 14 ± 0.3 | 0 | sensitive |  |  |
| CCN1CCN(C(=O)N[C@@H](C(=O)N[C@@H]2C(=O)N3[C@@H]2SC(C)(C)[C@@H]3C(=O)O)c2ccccc2)C(=O)C1=O [Piperacillin] | 18 ± 0.3 | 12 ± 0.1 |  |  |  |
| CN(C)[C@@H]1C(O)=C(C(N)=O)C(=O)[C@@]2(O)C(O)=C3C(=O)c4c(O)cccc4[C@@](C)(O)[C@H]3C[C@@H]12 [Tetracycline] | 24 ± 0.3 |  |  |  | 24 ± 0.2 |
| CC1(C)S[C@@H]2[C@H](NC(=O)[C@H](C(=O)O)c3ccsc3)C(=O)N2[C@H]1C(=O)O [Ticarcillin] | 24 ± 0.4 | 20 ± 0.1 | sensitive | sensitive |  |
| NC[C@H]1O[C@H](O[C@H]2[C@H](O)[C@@H](O[C@H]3O[C@H](CO)[C@@H](O)[C@H](N)[C@H]3O)[C@H](N)C[C@@H]2N)[C@H](N)C[C@@H]1O [Tobramycin] | 24 ± 0.3 | 20 ± 0.2 |  |  |  |
| COc1cc(Cc2cnc(N)nc2N)cc(OC)c1OC [Trimethoprim] | 24 ± 0.1 | 24 ± 0.1 |  |  |  |
| CN[C@H](CC(C)C)C(=O)N[C@H]1C(=O)N[C@@H](CC(N)=O)C(=O)N[C@H]2C(=O)N[C@H]3C(=O)N[C@H](C(=O)N[C@H](C(=O)O)c4cc(O)cc(O)c4-c4cc3ccc4O)[C@H](O)c3ccc(c(Cl)c3)Oc3cc2cc(c3O[C@@H]2O[C@H](CO)[C@@H](O)[C@H](O)[C@H]2O[C@H]2C[C@](C)(N)[C@H](O)[C@H](C)O2)Oc2ccc(cc2Cl)[C@H]1O [Vancomycin] | 12 ± 0.1 |  |  |  | 12 ± 0.1 |
| Bactrim | 30 ± 0.2 | 30 ± 0.1 |  |  |  |
| Gentamycin | 24 ± 0.2 | 20 ± 0.1 |  |  |  |
| Polymyxin E | 10 ± 0.1 | 0 | sensitive |  |  |

— patent US20050271643A1, “Bacterial strains, compositions including same and probiotic use thereof” (priority 2003, published 2005)
